The results in this text go back to patent publication US20230165818A1, “COMPOSITION FOR REDUCING HEPATIC TRIGLYCERIDES AND/OR IMPROVING GLUCOSE METABOLISM” (Compagnie Gervais Danone, priority 2020, published 2023).

One assay relates to FAO rat hepatocytes. In words: Hepatic glucose production (HGP) in FAO cells. The class given is cell-based. On the procedure: FAO rat hepatocytes were maintained in RPMI 1640 medium (Invitrogen) supplemented with 10% FBS. Cells were maintained in this medium 48 h before treatment. They were then serum-deprived overnight for 16 h with or without insulin (1 nM) and with HICA, HIVA or HMVA product at 10 nM, 100 nM, 1 μM, 10 μM, 100 μM and 1 mM. The cells were washed three times with PBS and incubated with phenol red- and glucose-free DMEM medium supplemented with 20 mM sodium L-lactate and 2 mM sodium pyruvate for 5 h with or without insulin and the indicated study treatment. Cell supernatant was collected, and glucose concentration was measured with the Amplex-Red Glucose assay kit accordingly to the manufacturer's instructions (Invitrogen). Cells were lysed with 50 mM NaOH, and protein concentration was determined using a BCA protein assay kit to normalize glucose production.

The test system of another assay is L6 myocytes. In words: Glucose uptake in L6 muscle cells. The class given is cell-based. To be noted: 0.01, 0.1 or 1 μM, basal and insulin conditions (FIGS. 2G and H). On the procedure:
FIG. 2. (A) HGP of FAO cells treated with a 1 mM mixture of HICA: HIVA: HMVA at molar ratio 1:1:0.5 in basal condition. (B) HGP of FAO cells treated with a 1 mM mixture of HICA: HIVA: HMVA at molar ratio 1:1:0.5 in insulin condition. (C) HGP of FAO cells treated with 0.5 and 1 mM of HICA, leucine or combination of both in basal condition. (D) HGP of FAO cells treated with 0.5 and 1 mM of HICA, leucine or combination of both in insulin condition. (E) Glucose uptake of L6 muscle cells treated with a 0.1 or 1 μM mixture of HICA: HIVA: HMVA at molar ratio 1:1:0.5 in basal condition. (F) Glucose uptake of L6 cells treated with a 0.1 or 1 μM mixture of HICA: HIVA: HMVA at molar ratio 1:1:0.5 in insulin condition. (G) Glucose uptake of L6 cells treated with 0.01, 0.1 or 1 μM of HICA in basal condition. (H) Glucose uptake of L6 cells treated with 0.01, 0.1 or 1 μM of HICA in insulin condition.*p<0.05 versus control, **p<0.01 versus control, ***p<0.001 vs control, kp<0.05 versus Leu 0.5 mM, ^$ p<0.05 versus Leu 1 mM, ^$$ p<0.01 versus Leu 1 mM, ^$$$ p<0.001 versus Leu 1 mM. For panel C, D, G, H expressed in fold, basal and basal insulin are considered as a reference and represented by a dash line.
The Inventors elected to test the hypothesis that BCHA could exert direct effects in relevant cells. […]

For `CC(C)CC(O)C(=O)O` (stereo not drawn) [HICA, alpha-hydroxyisocaproic acid], the “effect on HGP in combination with leucine” value in the assay on FAO rat hepatocytes (0.5 and 1 mM HICA combined with leucine (FIGS. 2C and D)) is on record as “competed the effect of its BCAA leucine precursor”. Further, the “basal HGP” value in the assay on FAO rat hepatocytes (0.5 and 1 mM, basal condition (FIG. 2C)) was “dose-dependently inhibited”. For the same compound, the “insulin-suppressed HGP” value in the assay with FAO rat hepatocytes (0.5 and 1 mM, insulin condition (FIG. 2D)) is given as “dose-dependently inhibited”. In the assay with L6 myocytes, the “glucose uptake, individual BCHA” value is “these effects appeared to be mostly explained by HICA”.
